Laboratory results as given in patent publication US10829833B2, “Biological processing of scrap metal, household waste and/or industrial waste for the isolation of heavy metals” (B.R.A.I.N. Biotechnology Research and Information Network AG, priority 2015, dated 2020).

Key:
Assay in all cases: Microbial growth on agar plates with different concentrations of AgNO3 or HAuCl4
Assay type in all cases: cell-based
Parameters in all cases: key: x = growth; (x) = weak growth
Settings in all cases: agar plate
Bacillus sphaericus = test system: Bacillus sphaericus
Source text: (§1) To investigate the tolerated concentration of silver and gold, the microorganisms were propagated in liquid medium and streaked on agar plates with different concentrations of AgNO3 or HAuCl4, respectively.

[1] = test system: Cupriavidus metallidurans
Source text: as §1

Escherichia coli = test system: Escherichia coli
Source text: as §1

Xanthomonas campestris = test system: Xanthomonas campestris
Source text: as §1

O=[N+]([O-])[O-].[Ag+] [AgNO3]
x: Microbial growth in dependence on AgNO3 concentration (Bacillus sphaericus; AgNO3 2 μM) | Microbial growth in dependence on AgNO3 concentration (Bacillus sphaericus; AgNO3 10 μM) | Microbial growth in dependence on AgNO3 concentration (Bacillus sphaericus; AgNO3 20 μM) | Microbial growth in dependence on AgNO3 concentration (Bacillus sphaericus; AgNO3 50 μM) | Microbial growth in dependence on AgNO3 concentration (Bacillus sphaericus; AgNO3 100 μM) | Microbial growth in dependence on AgNO3 concentration (Bacillus sphaericus; AgNO3 150 μM) | Microbial growth in dependence on AgNO3 concentration ([1]; AgNO3 2 μM) | Microbial growth in dependence on AgNO3 concentration ([1]; AgNO3 10 μM) | Microbial growth in dependence on AgNO3 concentration ([1]; AgNO3 20 μM) | Microbial growth in dependence on AgNO3 concentration ([1]; AgNO3 50 μM) | Microbial growth in dependence on AgNO3 concentration ([1]; AgNO3 100 μM) | Microbial growth in dependence on AgNO3 concentration ([1]; AgNO3 150 μM) | Microbial growth in dependence on AgNO3 concentration (Escherichia coli; AgNO3 2 μM) | Microbial growth in dependence on AgNO3 concentration (Escherichia coli; AgNO3 10 μM) | Microbial growth in dependence on AgNO3 concentration (Escherichia coli; AgNO3 20 μM) | Microbial growth in dependence on AgNO3 concentration (Escherichia coli; AgNO3 50 μM) | Microbial growth in dependence on AgNO3 concentration (Escherichia coli; AgNO3 100 μM) | Microbial growth in dependence on AgNO3 concentration (Xanthomonas campestris; AgNO3 2 μM) | Microbial growth in dependence on AgNO3 concentration (Xanthomonas campestris; AgNO3 10 μM) | Microbial growth in dependence on AgNO3 concentration (Xanthomonas campestris; AgNO3 20 μM) | Microbial growth in dependence on AgNO3 concentration (Xanthomonas campestris; AgNO3 50 μM) | Microbial growth in dependence on AgNO3 concentration (Xanthomonas campestris; AgNO3 100 μM)
(x): Microbial growth in dependence on AgNO3 concentration ([1]; AgNO3 200 μM)

[Au+3].[Cl-].[Cl-].[Cl-].[Cl-].[H+] [HAuCl4]
x: Microbial growth in dependence on HAuCl4 concentration (Bacillus sphaericus; HAuCl4 2 μM) | Microbial growth in dependence on HAuCl4 concentration (Bacillus sphaericus; HAuCl4 20 μM) | Microbial growth in dependence on HAuCl4 concentration (Bacillus sphaericus; HAuCl4 100 μM) | Microbial growth in dependence on HAuCl4 concentration (Bacillus sphaericus; HAuCl4 200 μM) | Microbial growth in dependence on HAuCl4 concentration ([1]; HAuCl4 2 μM) | Microbial growth in dependence on HAuCl4 concentration ([1]; HAuCl4 20 μM) | Microbial growth in dependence on HAuCl4 concentration ([1]; HAuCl4 100 μM) | Microbial growth in dependence on HAuCl4 concentration ([1]; HAuCl4 200 μM) | Microbial growth in dependence on HAuCl4 concentration ([1]; HAuCl4 300 μM) | Microbial growth in dependence on HAuCl4 concentration ([1]; HAuCl4 400 μM) | Microbial growth in dependence on HAuCl4 concentration ([1]; HAuCl4 500 μM) | Microbial growth in dependence on HAuCl4 concentration (Escherichia coli; HAuCl4 2 μM) | Microbial growth in dependence on HAuCl4 concentration (Escherichia coli; HAuCl4 20 μM) | Microbial growth in dependence on HAuCl4 concentration (Escherichia coli; HAuCl4 100 μM) | Microbial growth in dependence on HAuCl4 concentration (Escherichia coli; HAuCl4 200 μM) | Microbial growth in dependence on HAuCl4 concentration (Escherichia coli; HAuCl4 300 μM) | Microbial growth in dependence on HAuCl4 concentration (Xanthomonas campestris; HAuCl4 2 μM) | Microbial growth in dependence on HAuCl4 concentration (Xanthomonas campestris; HAuCl4 20 μM) | Microbial growth in dependence on HAuCl4 concentration (Xanthomonas campestris; HAuCl4 100 μM) | Microbial growth in dependence on HAuCl4 concentration (Xanthomonas campestris; HAuCl4 200 μM) | Microbial growth in dependence on HAuCl4 concentration (Xanthomonas campestris; HAuCl4 300 μM)
